Source: the supplement of paper PMC10307832

Columns and labels:
Assay in all cases: relative viability (nuclei count vs DMSO), 5 days (fraction); higher = more cells survive
[1] = compound: O=C(CCCCCCNC(=O)c1cnc(N(c2ccccc2)c2ccccc2)nc1)NO [Ricolinostat] + Cc1cc(Nc2cc(N3CCN(C)CC3)nc(Sc3ccc(NC(=O)C4CC4)cc3)n2)n[nH]1 [Tozasertib] (partner 0.1 µM)
Procedure, shortened: (§1)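 A single step with final 0.05% Triton X-100, 1% formaldehyde and 1 ug/ml Hoechst fixed the cells and stained nuclei 5 days after treatment. Lung cancer cell lines in 1536-well plates had been treated by pin tool the day after seeding with one drug alone or a fixed anchor-drug dose plus five library-drug doses (not always all listed) in √10 steps, and nuclei were counted on 4× images. Relative viability is the ratio of nuclei in treated wells to nuclei in vehicle wells, taken as the median of duplicate plates.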

[2] = compound: C1=CC=C(C(=C1)C2=CC=C(C=C2)C3=CSC4=C3C(=C(C(=O)N4)C#N)O)O + COc1cc2c(Oc3ccc(NC(=O)C4(C(=O)Nc5ccc(F)cc5)CC4)cc3F)ccnc2cc1OCCCN1CCOCC1 [Foretinib] (partner 0.25 µM)
Procedure, shortened: as §1

[3] = compound: C1=CC=C(C(=C1)C2=CC=C(C=C2)C3=CSC4=C3C(=C(C(=O)N4)C#N)O)O + C[C@]1(O)C[C@@H](c2nc(-c3ccc4ccc(-c5ccccc5)nc4c3)c3c(N)nccn32)C1 [Linsitinib] (partner 1 µM)
Procedure, shortened: as §1

[4] = compound: O=C(CCCCCCNC(=O)c1cnc(N(c2ccccc2)c2ccccc2)nc1)NO [Ricolinostat] + C[C@]1(O)C[C@@H](c2nc(-c3ccc4ccc(-c5ccccc5)nc4c3)c3c(N)nccn32)C1 [Linsitinib] (partner 1 µM)
Procedure, shortened: as §1

Cell Line	relative viability ([1]; first compound 0.08 µM)	relative viability ([1]; first compound 0.253 µM)	relative viability ([1]; first compound 0.8 µM)	relative viability ([1]; first compound 2.53 µM)	relative viability ([2]; first compound 0.08 µM)	relative viability ([2]; first compound 0.253 µM)	relative viability ([2]; first compound 0.8 µM)	relative viability ([2]; first compound 2.53 µM)	relative viability ([2]; first compound 8 µM)	relative viability ([3]; first compound 0.08 µM)	relative viability ([3]; first compound 0.253 µM)	relative viability ([3]; first compound 0.8 µM)	relative viability ([3]; first compound 2.53 µM)	relative viability ([3]; first compound 8 µM)	relative viability ([4]; first compound 0.08 µM)	relative viability ([4]; first compound 0.8 µM)	relative viability ([4]; first compound 2.53 µM)	relative viability ([4]; first compound 0.253 µM)
NCI-H1648	0.273	0.536	0.366	0.237														
NCI-H1755	0.581	0.565	0.525	0.53	0.966	0.924	0.89	0.929	0.95	0.934	1.17	0.889	1.19	0.97	0.901	0.994	0.966	
PC-3 [JPC-3]		0.84	0.851	0.771	1.05	1.01	1.02	1.05	0.995	1.1	1.06	0.989	0.952	1.09	0.894	0.9	0.793	0.925
HCC-44	1.01	0.984	0.862	0.537						0.587	0.84	0.66	0.715	0.58	0.575	0.589	0.545	0.682
CAL-12T	0.326	0.261	0.284	0.196	0.951	1.13	1.2	1.19	1.01	0.636	1.12	0.762	0.907	0.787	0.55	0.835	0.859	0.69
ChaGo-K-1	0.201	0.234	0.224	0.226	0.882	0.9	1.08	1.02	0.723									
NCI-H2126		0.823	0.739	0.495	1.41	1.22	1.43	1.15	1.01	0.71	0.721	0.699	0.678	0.704	0.539	0.7	0.627	0.724
HCC-827	0.354	0.413	0.409	0.379	1.11	1.04	1.04	1.06	0.969	1.02	1.04	0.995	0.993	0.955	0.896	0.966	1.02	0.91
LCLC-97TM1	0.171	0.2	0.149	0.153	0.827	1.16	1.01	1.03	0.91	0.197	0.203	0.222	0.198	0.164	0.171	0.231	0.172	0.199
HCC-15	0.349	0.35	0.233	0.233	0.996	1.1	1.13	1.12	0.898	0.914	0.844	0.985	0.918	0.871	0.847	0.938	0.834	0.866
NCI-H727	0.448	0.704	0.734	0.563	1.26	0.97	1.27	0.789	0.843	0.242	0.238	0.284	0.237	0.237	0.212	0.333	0.354	0.269
NCI-H2170	0.758	0.61	0.622	0.723	0.951	1.03	0.988	1.03	0.932									
201T	0.909	0.932	0.829	0.612		1.12	1.23	0.988	0.954	1.09	1.06	1.03	1.02	1.1	0.915	0.986	0.904	0.964
NCI-H838	0.255	0.275	0.238	0.212	1.06	0.981	1.05	0.954	0.91	0.738	1.22	1.08	0.988	1.04	0.944	1.1	0.9	1.01
NCI-H1915	0.438	0.455	0.385	0.377	1.12	1.24		1.08	0.747	1.2	1.15	1.08	1.19	1.01	1.01	1.02	1.01	1.04
LCLC-103H	0.443	0.401	0.393	0.337	0.78	0.735	0.93	0.698	0.587	1.11	1.22	0.984	1.08	0.869	0.925	1.09	1.11	1.06
SK-LU-1	0.321	0.273	0.285	0.194	0.886	0.733	0.871	0.947	0.734	1.31	1.11	1.16	1.19	1.15	1.09	1.18	0.76	0.96
NCI-H2347	0.419	0.47	0.513	0.425	0.845	0.923	0.951	1.01	0.735	0.993	1.13	0.961	0.99	0.844	0.832	0.876	0.906	0.92
ABC-1	0.215	0.203	0.229	0.18	1	1.13	1.05	0.951	1.09	0.926	0.906	0.856	0.875	0.735	0.616	0.944	0.669	0.772
NCI-H1563					0.972	0.862	0.947	0.861	0.927	1.16	1.06	1.11	1.23	1.31	1.19	1.08	0.982	1.12
NCI-H1355	0.6	0.558	0.483	0.477	0.895	1.01	1.12	0.951	0.703	0.981	0.746	0.824	0.758	0.625		0.735	0.716	0.79

Cell Line	relative viability ([1]; first compound 0.08 µM)	relative viability ([1]; first compound 0.253 µM)	relative viability ([1]; first compound 0.8 µM)	relative viability ([1]; first compound 2.53 µM)	relative viability ([2]; first compound 0.08 µM)	relative viability ([2]; first compound 0.253 µM)	relative viability ([2]; first compound 0.8 µM)	relative viability ([2]; first compound 2.53 µM)	relative viability ([2]; first compound 8 µM)	relative viability ([3]; first compound 0.08 µM)	relative viability ([3]; first compound 0.253 µM)	relative viability ([3]; first compound 0.8 µM)	relative viability ([3]; first compound 2.53 µM)	relative viability ([3]; first compound 8 µM)	relative viability ([4]; first compound 0.08 µM)	relative viability ([4]; first compound 0.8 µM)	relative viability ([4]; first compound 2.53 µM)	relative viability ([4]; first compound 0.253 µM)
NCI-H2228	0.37	0.235	0.237	0.141	0.764	0.871	0.96	0.847	0.588	0.623	0.627	0.686	0.648	0.666	0.455	0.722	0.814	0.451
LXF-289	0.192	0.201	0.22	0.19	0.999	0.959	0.993	1.05	1.04	0.978	0.961	0.986	1	0.973	0.93	0.966	0.962	0.956
NCI-H2085	0.688	0.731	0.613	0.523	1.05	0.9	0.958	0.852	0.797	0.878	0.904	0.935	1.09	0.773		0.922	0.865	0.868
NCI-H2342	0.496	0.461	0.401	0.426	1.01	1.1	1.1	1.03	0.856									
EMC-BAC-2	0.318	0.234	0.204	0.206	1.07	1.1	0.989	0.963	0.896	0.759	0.853	0.837	0.811	0.77	0.731	0.832	0.885	0.78
IA-LM					0.893	1.35	1.01	1.41	1.14	0.479	1.9	0.198	0.855	0.376	0.335	0.594	0.259	0.529
A549					0.688	1.07	0.971	0.756	0.649	0.635	0.606	0.509	0.521	0.393		0.538	0.562	0.533
NCI-H3122		0.361	0.382	0.295	0.954	1.05	1.01	1.06	0.978	1.1	1.07	1.06	1.05	1.02	1.01	1.13	1.05	1.02
LC-2-ad	0.474	0.412	0.371	0.299	0.877	1.06	0.96	0.968	0.753	0.894	0.889	0.805	0.876	0.751	0.799	0.825	0.684	0.834
NCI-H1734	0.241	0.29	0.231	0.292	0.783	0.803	0.899	0.971	0.738	0.734	0.849	0.882	1.01	0.646	0.737	0.961	1	0.843
NCI-H1975	0.83	0.708	0.604	0.59	0.889	0.822	0.967	1	0.84	0.926	0.802	1.04	1.02	0.796	0.998		0.835	0.878
NCI-H1793		0.256	0.27	0.244	0.623	0.673	0.691	0.595	0.555	0.679	1.12	0.747	0.856	0.508		0.743	0.81	0.802
NCI-H1650	0.428	0.431	0.265	0.256	0.795	1.52	1.31	1.22	0.935									
NCI-H1651	0.658	0.744	0.633	0.436	0.848	0.774	0.924	0.76	0.714	0.807	0.9	1.02	0.868	0.788	0.72	0.93	0.816	0.871
NCI-H1299					1.1	1.07	1.09	1.11	1.17	0.848	1	0.852	1.01	0.912	0.984	0.959	0.74	0.898
SW 900	0.596	0.509	0.393	0.459	0.914	0.519	0.923	0.634	0.62									
NCI-H1703					0.284	0.355	0.35	0.363	0.409	0.803	0.446	0.589	0.507	0.76		0.774	0.956	0.669
NCI-H522	0.616	0.565	0.54	0.641														
NCI-H1623	0.489	0.462	0.477	0.424	0.915	0.971	0.864	0.889	0.798									
Calu-6					0.985	0.967	0.909	0.94	0.773	0.95	1.1	1.06	1.01	0.786	0.817	0.891	0.766	0.89
EBC-1					0.103	0.101	0.123	0.0897	0.115	0.784	1.16	0.642	0.925	0.781	0.737	0.911	0.328	0.713
